One data set has as its system male ZDF rats. The data set is described as follows: Food consumption after oxyntomodulin/FDKP powder. It is filed as in vivo, rat. The conditions noted are these: 0.15-0.9 mg oxyntomodulin as 30% powder, rats fasted 24 hr.
For data set [1] the following is noted: literature evaluation; cited from earlier work.
In data set [2] the test system is healthy adult male subjects. Kind of data set: Phase 1a trial of GLP-1/FDKP inhalation powder: insulin, glucose and glucagon response. The format is in vivo, human. The following applies: 1.5 mg GLP-1; two of the six subjects; value that defines hypoglycemia. The source says: Dropouts were not replaced. These dosages assumed a body mass of 70 kg.
Data set [3] has as its system healthy adult male subjects.
Experimental: Additional pulmonary safety and pharmacokinetic parameters were also evaluated. Pulmonary safety as expressed by the incidence of pulmonary and other adverse events and changes in pulmonary function between Visit 1 (Screening) and Visit 3 (Follow-up) was studied. […] Clinical trial endpoints were based on a comparison of the following pharmacological and safety parameters determined in the trial subject population. Primary endpoints included the incidence and severity of reported AEs, including cough and dyspnea, nausea and/or vomiting, as well as changes from screening in vital signs, clinical laboratory tests and physical examinations.
The conditions of data set [4]: Deacon et al., cited from earlier work.

Experimental for male ZDF rats: Male ZDF rats (10/group) were assigned to one of four groups.
Rats were allowed to eat after receiving the experimental dose. A predetermined amount of food was given to the rats and the amount of food the rats consumed was measured at various times after the start of the experiment.

In the case of oxyntomodulin, the “duration of significantly less food consumed than control rats” value with male ZDF rats is recorded as “up to 6 hr”.

With `CC[C@H](C)[C@H](NC(=O)[C@H](Cc1ccccc1)NC(=O)[C@H](CCC(=O)O)NC(=O)[C@H](CCCCN)NC(=O)[C@H](C)NC(=O)[C@H](C)NC(=O)[C@H](CCC(N)=O)NC(=O)CNC(=O)[C@H](CCC(=O)O)NC(=O)[C@H](CC(C)C)NC(=O)[C@H](Cc1ccc(O)cc1)NC(=O)[C@H](CO)NC(=O)[C@H](CO)NC(=O)[C@@H](NC(=O)[C@H](CC(=O)O)NC(=O)[C@H](CO)NC(=O)[C@@H](NC(=O)[C@H](Cc1ccccc1)NC(=O)[C@@H](NC(=O)CNC(=O)[C@H](CCC(=O)O)NC(=O)[C@H](C)NC(=O)[C@@H](N)Cc1c[nH]cn1)[C@@H](C)O)[C@@H](C)O)C(C)C)C(=O)N[C@@H](C)C(=O)N[C@@H](Cc1c[nH]c2ccccc12)C(=O)N[C@@H](CC(C)C)C(=O)N[C@H](C(=O)N[C@@H](CCCCN)C(=O)NCC(=O)N[C@@H](CCCNC(=N)N)C(N)=O)C(C)C` [GLP-1, GLP-1(7-36)amide], the “active GLP-1 concentration in blood plasma above which profuse sweating, nausea and vomiting are typically observed” value in data set [1] was “exceed 100 pmol/L”. Also, the “glucose concentration lowered by GLP-1” value in data set [2] is “below 3.5 mmol/L”. Besides, where the note is “after inhalation of GLP-1/FDKP powder”, the “time for plasma active GLP-1 to fall to the physiological range” value is no more than 9 min. For the same compound, the “metabolite peaks, intravenous compared to pulmonary administration” value (at comparable active concentrations) is recorded as 8-9 fold greater. Further, in data set [3] (all doses, pulmonary), the “subjects reporting symptoms of nausea, profuse sweating or vomiting” value is “None of the subjects”. The “inhibition of gastric emptying” value in data set [3] (pulmonary dry powder, data not shown) is given as “lack inhibition of gastric emptying”. In addition, the “degradation in the liver” value in data set [4] is 45%. In data set [4] (intravenous, pigs), the “GLP-1 instantaneously metabolized in the vein” value was 40%, the “GLP-1 metabolized in the deoxygenated blood in the lung” value is given as 10% and the “extraction by the portal bed” value was 20%.
